Measured values: ChEMBL document CHEMBL4619816, “GSK973 Is an Inhibitor of the Second Bromodomains (BD2s) of the Bromodomain and Extra-Terminal (BET) Family” (ACS Med Chem Lett, 2020)
Active and inactive are the calls of the source. The calls are words filed in the database; no cut-off is given here.

What was measured:
Blood = experiment: Inhibition of LPS-induced MCP1 production in human whole blood preincubated for 30 mins followed by LPS addition measured after 24 hrs by immuno assay; type: functional, tissue-based
[1] = Chromatographic hydrophobicity index, log D of the compound in pH 7.4 ammonium acetate buffer/acetonitrile gradient by HPLC analysis; type: physicochemical
[2] = Permeability of compound by artificial membrane assay; type: ADME; settings: PAMPA; read-out: permeability
[3] = Clearance in Wistar Han rat hepatocytes assessed as per gram tissue at 0.5 uM measured up to 1 hr by LC-MS/MS analysis; type: ADME, cell-based, Hepatocyte
[4] = Clearance in Beagle dog hepatocytes assessed as per gram tissue at 0.5 uM by LC-MS/MS analysis; type: ADME, cell-based, Canis lupus familiaris, Hepatocyte
[5] = Clearance in Wistar Han rat at 1 mg/kg administered as iv infusion for 1 hr and measured up to 24 hrs by LC-MS/MS analysis; type: ADME, organism-based; settings: in vivo
[6] = Renal clearance in Wistar Han rat at 1 mg/kg administered as iv infusion for 1 hr and measured up to 24 hrs by LC-MS/MS analysis; type: ADME, organism-based; settings: in vivo
[7] = Half life in Wistar Han rat at 1 mg/kg administered as iv infusion for 1 hr and measured up to 24 hrs by LC-MS/MS analysis; type: ADME, organism-based; settings: in vivo
[8] = Clearance in Beagle dog at 1 mg/kg, iv; type: ADME, organism-based, Canis lupus familiaris; settings: in vivo
[9] = Volume of distribution at steady state in Beagle dog at 1 mg/kg, iv; type: ADME, organism-based, Canis lupus familiaris; settings: in vivo, read-out: Vdss
[10] = Oral bioavailability in Beagle dog at 1 mg/kg, […]; type: ADME, organism-based, Canis lupus familiaris; settings: in vivo
[11] = molecular target: ATPase family AAA domain-containing protein 2 (Homo sapiens) (UniProt Q6PL18); experiment: Inhibition of human partial length ATAD2A (Q981 to R1108 residues) expressed in bacterial expression system by BROMOscan assay
[12] = molecular target: ATPase family AAA domain-containing protein 2B (Homo sapiens) (UniProt Q9ULI0); experiment: Inhibition of human partial length ATAD2B (Q955 to R1082 residues) expressed in bacterial expression system by BROMOscan assay
[13] = molecular target: Bromodomain adjacent to zinc finger domain protein 2A (Homo sapiens) (UniProt Q9UIF9); experiment: Inhibition of human partial length BAZ2A (M1792 to L1905 residues) expressed in bacterial expression system by BROMOscan assay
[14] = molecular target: Bromodomain adjacent to zinc finger domain protein 2B (Homo sapiens) (UniProt Q9UIF8); experiment: Inhibition of human partial length BAZ2B (S2054 to S2168 residues) expressed in bacterial expression system by BROMOscan assay
[15] = molecular target: Bromodomain-containing protein 2 (Homo sapiens) (UniProt P25440); experiment: Inhibition of human partial length BRD2 bromodomain 1 long isoform (K71 to N194 residues) expressed in bacterial expression system by BROMOscan assay
[16] = molecular target: Bromodomain-containing protein 2 (Homo sapiens) (UniProt P25440); experiment: Inhibition of human partial length BRD2 bromodomain 1/2 isoform 1 (K71 to D455 residues) by BROMOscan assay
[17] = molecular target: Bromodomain-containing protein 2 (Homo sapiens) (UniProt P25440); experiment: Inhibition of human partial length BRD2 bromodomain 2 isoform 1 (E348 to D455 residues) expressed in bacterial expression system by BROMOscan assay
[18] = molecular target: Bromodomain-containing protein 7 (Homo sapiens) (UniProt Q9NPI1); experiment: Inhibition of human partial length BRD7 (L125 to R254 residues) expressed in mammalian expression system by BROMOscan assay
[19] = molecular target: Bromodomain-containing protein 8 (Homo sapiens) (UniProt Q9H0E9); experiment: Inhibition of BRD8 bromodomain 2 (unknown origin) by BROMOscan assay
[20] = molecular target: Bromodomain testis-specific protein (Homo sapiens) (UniProt Q58F21); experiment: Inhibition of BRDT bromodomain 1/2 (unknown origin) by BROMOscan assay
[21] = molecular target: Bromodomain and PHD finger-containing protein 3 (Homo sapiens) (UniProt Q9ULD4); experiment: Inhibition of human partial length BRPF3 (E588 to G701 residues) expressed in bacterial expression system by BROMOscan assay
[22] = molecular target: Chromatin remodeling regulator CECR2 (Homo sapiens) (UniProt Q9BXF3); experiment: Inhibition of human partial length CECR2 (P423 to D543 residues) expressed in bacterial expression system by BROMOscan assay
[23] = molecular target: CREB-binding protein (Homo sapiens) (UniProt Q92793); experiment: Inhibition of human partial length CREBBP (R1081 to G1197 residues) expressed in bacterial expression system by BROMOscan assay
[24] = molecular target: Histone acetyltransferase p300 (Homo sapiens) (UniProt Q09472); experiment: Inhibition of human partial length EP300 (A1040 to G1161 residues) expressed in bacterial expression system by BROMOscan assay
[25] = molecular target: Nucleosome-remodeling factor subunit BPTF (Homo sapiens) (UniProt Q12830); experiment: Inhibition of human partial length FALZ (S2791 to H2911 residues) expressed in bacterial expression system by BROMOscan assay
[26] = molecular target: Protein polybromo-1 (Homo sapiens) (UniProt Q86U86); experiment: Inhibition of human partial length PBRM1 bromodomain 1 (S178 to E291 residues) expressed in bacterial expression system by BROMOscan assay
[27] = molecular target: Histone acetyltransferase KAT2B (Homo sapiens) (UniProt Q92831); experiment: Inhibition of human partial length PCAF (G715 to D831 residues) expressed in bacterial expression system by BROMOscan assay
[28] = molecular target: SWI/SNF-related matrix-associated actin-dependent regulator of chromatin subfamily A member 2 (Homo sapiens) (UniProt P51531); experiment: Inhibition of human partial length SMARCA2 (S1377 to Q1486 residues) expressed in bacterial expression system by BROMOscan assay
[29] = molecular target: SWI/SNF-related matrix-associated actin-dependent regulator of chromatin subfamily A member 4 (Homo sapiens) (UniProt P51532); experiment: Inhibition of human partial length SMARCA4 (A1448 to S1575 residues) expressed in bacterial expression system by BROMOscan assay
[30] = molecular target: Transcription initiation factor TFIID subunit 1 (Homo sapiens) (UniProt P21675); experiment: Inhibition of human partial length TAF1 bromodomain 2 (D1521 to D1656 residues) expressed in bacterial expression system by BROMOscan assay
[31] = molecular target: Transcription initiation factor TFIID subunit 1-like (Homo sapiens) (UniProt Q8IZX4); experiment: Inhibition of human partial length TAF1L bromodomain 2 (Q1523 to D1654 residues) expressed in bacterial expression system by BROMOscan assay
[32] = molecular target: Transcription intermediary factor 1-alpha (Homo sapiens) (UniProt O15164); experiment: Inhibition of human partial length TRIM24 (P790 to P977 residues) expressed in bacterial expression system by BROMOscan assay
[33] = molecular target: E3 ubiquitin-protein ligase TRIM33 (Homo sapiens) (UniProt Q9UPN9); experiment: Inhibition of human partial length TRIM33 (D882 to A1087 residues) expressed in bacterial expression system by BROMOscan assay
[34] = molecular target: Bromodomain and WD repeat-containing protein 1 (Homo sapiens) (UniProt Q9NSI6); experiment: Inhibition of human partial length WDR9 bromodomain 2 (A1310 to E1430 residues) expressed in bacterial expression system by BROMOscan assay

Sequence of Bromodomain-containing protein 2 (Homo sapiens) (P25440 whole entry, looked up, the tested form may be a part, canonical isoform): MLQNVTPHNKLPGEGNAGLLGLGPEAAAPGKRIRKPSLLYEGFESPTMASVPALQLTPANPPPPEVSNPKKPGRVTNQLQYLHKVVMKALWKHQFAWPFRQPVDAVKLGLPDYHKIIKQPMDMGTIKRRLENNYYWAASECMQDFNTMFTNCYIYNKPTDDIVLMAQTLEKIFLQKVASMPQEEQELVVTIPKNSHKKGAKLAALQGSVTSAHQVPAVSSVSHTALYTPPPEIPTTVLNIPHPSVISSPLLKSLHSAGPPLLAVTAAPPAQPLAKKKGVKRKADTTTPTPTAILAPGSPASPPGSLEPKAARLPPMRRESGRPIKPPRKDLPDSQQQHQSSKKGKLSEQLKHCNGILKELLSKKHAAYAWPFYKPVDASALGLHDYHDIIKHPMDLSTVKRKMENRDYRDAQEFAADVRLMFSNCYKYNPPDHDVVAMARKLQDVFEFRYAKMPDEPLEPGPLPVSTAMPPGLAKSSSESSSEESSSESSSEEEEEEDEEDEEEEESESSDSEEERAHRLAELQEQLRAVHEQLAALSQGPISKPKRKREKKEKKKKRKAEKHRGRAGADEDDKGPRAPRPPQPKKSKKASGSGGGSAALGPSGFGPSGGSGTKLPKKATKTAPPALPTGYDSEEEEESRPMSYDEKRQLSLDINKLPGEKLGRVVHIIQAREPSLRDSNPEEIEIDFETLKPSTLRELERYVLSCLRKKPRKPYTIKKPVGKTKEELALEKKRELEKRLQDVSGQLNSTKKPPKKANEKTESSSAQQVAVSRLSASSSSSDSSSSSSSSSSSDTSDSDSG
Sequence of ATPase family AAA domain-containing protein 2B (Homo sapiens) (Q9ULI0 whole entry, the tested form may be a part): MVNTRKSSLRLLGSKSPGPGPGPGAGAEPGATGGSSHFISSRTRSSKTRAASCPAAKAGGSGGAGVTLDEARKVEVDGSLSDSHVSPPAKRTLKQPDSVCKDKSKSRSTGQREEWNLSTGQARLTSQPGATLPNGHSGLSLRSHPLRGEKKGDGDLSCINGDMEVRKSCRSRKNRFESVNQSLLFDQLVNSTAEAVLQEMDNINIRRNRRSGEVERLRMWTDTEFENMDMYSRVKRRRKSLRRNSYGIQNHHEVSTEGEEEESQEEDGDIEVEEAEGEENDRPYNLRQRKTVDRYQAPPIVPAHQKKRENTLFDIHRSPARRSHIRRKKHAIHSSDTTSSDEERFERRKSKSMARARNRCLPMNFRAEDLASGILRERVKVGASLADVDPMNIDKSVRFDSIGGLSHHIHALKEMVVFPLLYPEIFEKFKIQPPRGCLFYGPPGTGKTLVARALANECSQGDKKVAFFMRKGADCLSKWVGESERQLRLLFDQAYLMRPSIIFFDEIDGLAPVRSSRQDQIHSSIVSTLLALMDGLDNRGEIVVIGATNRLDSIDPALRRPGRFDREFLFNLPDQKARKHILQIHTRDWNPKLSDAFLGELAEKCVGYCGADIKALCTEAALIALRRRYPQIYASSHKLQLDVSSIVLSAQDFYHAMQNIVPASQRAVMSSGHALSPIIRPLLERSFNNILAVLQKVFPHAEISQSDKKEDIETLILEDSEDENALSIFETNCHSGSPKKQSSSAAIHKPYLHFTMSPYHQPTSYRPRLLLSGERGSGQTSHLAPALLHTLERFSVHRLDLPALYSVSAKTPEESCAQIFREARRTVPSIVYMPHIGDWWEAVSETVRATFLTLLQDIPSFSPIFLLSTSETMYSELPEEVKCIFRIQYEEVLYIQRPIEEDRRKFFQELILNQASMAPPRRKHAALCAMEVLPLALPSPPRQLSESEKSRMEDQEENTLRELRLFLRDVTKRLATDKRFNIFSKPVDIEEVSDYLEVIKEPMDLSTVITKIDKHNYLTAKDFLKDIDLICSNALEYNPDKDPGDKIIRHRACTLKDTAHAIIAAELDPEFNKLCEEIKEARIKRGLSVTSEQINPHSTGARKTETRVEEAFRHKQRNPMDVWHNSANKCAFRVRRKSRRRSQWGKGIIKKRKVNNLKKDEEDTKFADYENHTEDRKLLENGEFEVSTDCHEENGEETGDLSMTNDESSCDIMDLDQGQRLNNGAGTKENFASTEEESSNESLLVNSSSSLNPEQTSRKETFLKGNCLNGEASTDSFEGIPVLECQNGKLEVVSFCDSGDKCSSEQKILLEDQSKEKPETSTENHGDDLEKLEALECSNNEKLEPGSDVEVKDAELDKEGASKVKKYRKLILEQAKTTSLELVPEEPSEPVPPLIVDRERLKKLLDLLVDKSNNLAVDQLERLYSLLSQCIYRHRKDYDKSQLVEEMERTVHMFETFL
Sequence of E3 ubiquitin-protein ligase TRIM33 (Homo sapiens) (Q9UPN9 whole entry, the tested form may be a part): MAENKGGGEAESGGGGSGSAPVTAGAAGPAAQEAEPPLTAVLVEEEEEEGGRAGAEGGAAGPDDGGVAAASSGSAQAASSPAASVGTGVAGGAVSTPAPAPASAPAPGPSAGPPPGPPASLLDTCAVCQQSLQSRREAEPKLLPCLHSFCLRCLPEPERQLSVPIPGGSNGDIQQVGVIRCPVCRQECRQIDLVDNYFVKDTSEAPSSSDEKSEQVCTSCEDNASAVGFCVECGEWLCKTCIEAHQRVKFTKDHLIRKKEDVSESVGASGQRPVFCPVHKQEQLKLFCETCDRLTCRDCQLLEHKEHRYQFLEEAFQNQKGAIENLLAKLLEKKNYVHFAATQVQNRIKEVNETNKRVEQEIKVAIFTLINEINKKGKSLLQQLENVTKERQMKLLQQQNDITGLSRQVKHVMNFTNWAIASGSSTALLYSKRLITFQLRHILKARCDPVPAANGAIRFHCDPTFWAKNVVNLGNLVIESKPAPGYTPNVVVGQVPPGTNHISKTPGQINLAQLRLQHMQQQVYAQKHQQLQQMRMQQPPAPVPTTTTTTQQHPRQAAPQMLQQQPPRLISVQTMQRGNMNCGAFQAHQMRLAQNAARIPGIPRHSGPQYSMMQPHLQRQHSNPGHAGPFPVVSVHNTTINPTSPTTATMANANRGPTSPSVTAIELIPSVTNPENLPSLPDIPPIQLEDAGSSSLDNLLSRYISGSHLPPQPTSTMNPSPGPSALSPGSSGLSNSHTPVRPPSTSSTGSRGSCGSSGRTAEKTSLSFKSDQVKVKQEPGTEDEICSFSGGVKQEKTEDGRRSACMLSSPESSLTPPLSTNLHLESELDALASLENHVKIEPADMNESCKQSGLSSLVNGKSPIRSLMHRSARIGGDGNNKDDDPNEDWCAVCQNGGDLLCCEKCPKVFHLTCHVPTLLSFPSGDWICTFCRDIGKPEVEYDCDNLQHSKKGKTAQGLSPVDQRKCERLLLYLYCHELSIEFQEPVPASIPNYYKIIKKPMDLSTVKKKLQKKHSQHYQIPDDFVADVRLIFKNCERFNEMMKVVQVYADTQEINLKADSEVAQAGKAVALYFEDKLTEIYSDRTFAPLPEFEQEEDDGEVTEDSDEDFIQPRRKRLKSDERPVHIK
Sequence of SWI/SNF-related matrix-associated actin-dependent regulator of chromatin subfamily A member 4 (Homo sapiens) (P51532 whole entry, the tested form may be a part): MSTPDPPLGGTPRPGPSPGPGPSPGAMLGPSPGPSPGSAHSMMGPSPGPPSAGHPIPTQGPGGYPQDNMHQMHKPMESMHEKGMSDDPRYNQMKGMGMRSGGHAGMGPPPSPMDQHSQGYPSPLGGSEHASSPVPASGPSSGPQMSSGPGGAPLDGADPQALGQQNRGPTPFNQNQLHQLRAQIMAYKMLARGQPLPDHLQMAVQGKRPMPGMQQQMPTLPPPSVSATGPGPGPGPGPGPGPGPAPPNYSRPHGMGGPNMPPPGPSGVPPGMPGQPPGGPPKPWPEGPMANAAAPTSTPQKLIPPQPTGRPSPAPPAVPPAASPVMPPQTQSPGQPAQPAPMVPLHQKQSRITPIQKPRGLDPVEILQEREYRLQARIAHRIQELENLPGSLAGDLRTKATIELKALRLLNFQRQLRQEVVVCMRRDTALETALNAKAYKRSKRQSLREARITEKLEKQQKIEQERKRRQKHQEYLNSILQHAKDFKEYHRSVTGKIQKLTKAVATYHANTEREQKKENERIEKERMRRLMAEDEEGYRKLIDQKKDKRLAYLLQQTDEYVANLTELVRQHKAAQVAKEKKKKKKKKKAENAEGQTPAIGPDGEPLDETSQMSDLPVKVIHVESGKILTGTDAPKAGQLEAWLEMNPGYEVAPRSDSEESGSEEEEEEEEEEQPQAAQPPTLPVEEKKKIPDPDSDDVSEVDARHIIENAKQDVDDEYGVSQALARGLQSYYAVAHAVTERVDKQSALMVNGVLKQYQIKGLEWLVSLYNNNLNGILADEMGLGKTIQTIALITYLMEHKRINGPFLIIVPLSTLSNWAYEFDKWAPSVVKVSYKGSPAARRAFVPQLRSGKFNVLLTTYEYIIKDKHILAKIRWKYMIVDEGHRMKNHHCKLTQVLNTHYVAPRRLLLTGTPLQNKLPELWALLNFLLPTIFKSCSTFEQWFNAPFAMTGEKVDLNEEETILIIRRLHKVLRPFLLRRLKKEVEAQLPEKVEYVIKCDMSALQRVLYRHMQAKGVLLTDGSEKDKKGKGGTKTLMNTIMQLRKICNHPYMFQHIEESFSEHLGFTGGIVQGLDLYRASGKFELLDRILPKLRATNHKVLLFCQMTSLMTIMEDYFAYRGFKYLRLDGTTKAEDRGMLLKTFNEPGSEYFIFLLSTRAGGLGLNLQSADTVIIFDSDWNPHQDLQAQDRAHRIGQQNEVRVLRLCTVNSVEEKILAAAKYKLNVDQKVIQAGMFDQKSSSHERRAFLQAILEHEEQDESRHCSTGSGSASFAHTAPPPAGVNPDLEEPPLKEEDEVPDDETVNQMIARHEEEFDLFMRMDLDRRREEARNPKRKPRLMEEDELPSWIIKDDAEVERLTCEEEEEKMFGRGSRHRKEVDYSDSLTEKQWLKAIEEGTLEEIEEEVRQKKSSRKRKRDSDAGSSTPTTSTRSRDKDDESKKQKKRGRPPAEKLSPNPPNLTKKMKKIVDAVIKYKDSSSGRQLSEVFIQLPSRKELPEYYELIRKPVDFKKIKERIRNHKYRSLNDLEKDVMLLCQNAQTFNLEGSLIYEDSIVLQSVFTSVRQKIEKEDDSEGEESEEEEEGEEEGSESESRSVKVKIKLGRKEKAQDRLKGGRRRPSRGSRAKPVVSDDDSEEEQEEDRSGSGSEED

CNC(=O)c1cc(C(=O)N[C@@H]2[C@@H]3COC[C@@H]32)cc2c1O[C@H](CF)[C@H]2c1ccccc1
IC50 (Blood): 50.1 nM
CHI [1]: 3.56
Papp [2]: 16.5 ×10⁻⁶ cm/s
CLH [3]: 1.76 mL/min/g
CLH [4]: < 0.65 mL/min/g
clearance [5]: 73 mL/min/kg
CL renal [6]: 4 mL/min/kg
half-life [7]: 36 min
clearance [8]: 3 mL/min/kg
Vd [9]: 1.3 L/kg
bioavailability [10]: 87%
inhibition [11]: inactive
inhibition [12]: inactive
inhibition [13]: inactive
inhibition [14]: inactive
inhibition [15]: inactive
inhibition [16]: inactive
inhibition [17]: inactive
inhibition [18]: inactive
inhibition [19]: inactive
inhibition [20]: inactive
inhibition [21]: inactive
inhibition [22]: inactive
inhibition [23]: inactive
inhibition [24]: inactive
inhibition [25]: inactive
inhibition [26]: inactive
inhibition [27]: inactive
inhibition [28]: inactive
inhibition [29]: inactive
inhibition [30]: inactive
inhibition [31]: inactive
inhibition [32]: inactive
inhibition [33]: inactive
inhibition [34]: inactive
